According to ChEMBL document CHEMBL1201862, “PubChem BioAssay data set” (2004):
The source made the active and inactive calls. Cut-off read from the data, not from the text of the source, for most assays here: actives have a measured EC50 and inactives only a lower limit.

Columns and labels:
[1] = Luminescence Cell-Based Dose Confirmation HTS to Identify Activators of 5'UTR Stem-Loop Driven Alpha-Synuclein mRNA Translation in H4 Neuroglioblastoma Cells. [Related pubchem assays: 1829 (Project Summary), 1814 (Primary HTS)]; type: functional
[2] = Luminescence Cell-Based Dose Response HTS to Identify Activators of Luciferase Translation or Activity in H4 […] Cells. [Related pubchem assays: 1829 (Project Summary), 1814 (Primary HTS)]; type: functional
H4 = test: Luminescence Cell-Based Dose Response HTS to Identify Activators of 5'UTR Stem-Loop Driven Prion Protein mRNA Translation in H4 Neuroglioblastoma Cells. [Related pubchem assays: 1829 (Project Summary), 1814 (Primary HTS)]; type: functional; settings: Homo sapiens
[3] = viability of uninfected HEp-2 cells – cell-based, HTS, cytotoxicity control for RSV inhibitor project, dose response (AID 2410); type: functional; settings: human respiratory syncytial virus
[4] = target: T1, Corticotropin-releasing factor receptor 2/Corticotropin-releasing factor-binding protein (Homo sapiens, UniProt P24387+Q13324); test: activators of CRF receptor 2 with binding protein – uHTS hits, confirmation (AID 602473); type: functional; settings: read-out: EC50_Mean
T1 sequence (Q13324 whole entry): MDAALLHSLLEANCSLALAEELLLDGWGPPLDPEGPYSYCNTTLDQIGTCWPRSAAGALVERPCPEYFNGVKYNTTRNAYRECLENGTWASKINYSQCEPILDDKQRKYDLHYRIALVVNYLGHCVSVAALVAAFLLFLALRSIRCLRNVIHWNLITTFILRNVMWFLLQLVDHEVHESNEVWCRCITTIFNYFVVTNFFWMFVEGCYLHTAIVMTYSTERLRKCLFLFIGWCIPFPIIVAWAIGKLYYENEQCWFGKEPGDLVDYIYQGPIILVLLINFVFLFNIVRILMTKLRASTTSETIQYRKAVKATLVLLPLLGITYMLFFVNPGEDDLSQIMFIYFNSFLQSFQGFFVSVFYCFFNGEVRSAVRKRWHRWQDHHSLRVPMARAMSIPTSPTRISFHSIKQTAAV
T1 sequence (P24387 whole entry): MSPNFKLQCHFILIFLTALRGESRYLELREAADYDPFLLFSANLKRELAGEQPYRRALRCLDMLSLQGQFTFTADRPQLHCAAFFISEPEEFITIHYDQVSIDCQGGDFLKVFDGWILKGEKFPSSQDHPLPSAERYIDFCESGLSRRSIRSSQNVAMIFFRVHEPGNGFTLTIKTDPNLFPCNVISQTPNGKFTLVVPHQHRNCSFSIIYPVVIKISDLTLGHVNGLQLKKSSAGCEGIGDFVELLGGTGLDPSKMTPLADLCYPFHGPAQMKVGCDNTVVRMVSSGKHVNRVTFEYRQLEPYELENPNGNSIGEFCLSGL

[5] = tested on: Streptococcus sp. 'group A'; test: Streptococcus pyogenes SK(-)GAS viability under kanamycin – luminescence, BacTiterGlo, confirmation, counter-screen for streptokinase expression inhibitor project, dose response (AID 1900); type: functional, organism-based
Streptokinase A = target: T2, Streptokinase A (Streptococcus pyogenes serotype M1, UniProt P10520); test: viability-normalized secreted streptokinase activity reduction – plasminogen activation absorbance, OD405, dose response (AID 1914); type: functional, Streptococcus pyogenes M1 GAS;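 note: secreted streptokinase activity via plasminogen activation per viability signal from cell pellet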
T2 sequence (P10520 whole entry): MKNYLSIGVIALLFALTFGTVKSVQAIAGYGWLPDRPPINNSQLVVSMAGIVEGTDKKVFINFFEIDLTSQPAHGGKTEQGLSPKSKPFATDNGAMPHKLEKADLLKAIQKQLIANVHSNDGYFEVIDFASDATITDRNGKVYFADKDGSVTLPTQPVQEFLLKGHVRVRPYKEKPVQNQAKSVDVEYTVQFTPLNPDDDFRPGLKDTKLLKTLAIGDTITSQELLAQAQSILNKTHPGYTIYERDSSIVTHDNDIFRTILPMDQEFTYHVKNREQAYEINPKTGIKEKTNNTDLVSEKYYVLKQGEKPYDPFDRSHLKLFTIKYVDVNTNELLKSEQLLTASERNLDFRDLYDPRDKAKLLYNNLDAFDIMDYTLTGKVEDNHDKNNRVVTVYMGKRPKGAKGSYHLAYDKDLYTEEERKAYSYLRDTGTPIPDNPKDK

Streptococcus = test: GAS UMAA2166 growth inhibition – luminescence, BacTiterGlo, counter-screen for streptokinase expression inhibitor project, dose response (AID 1915); type: functional, organism-based;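 note: potency for reduction of bacterial viability or growth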

| Compound | EC50 [1] | EC50 [2] | EC50 (H4) | CC50 [3] | also measured |
| --- | --- | --- | --- | --- | --- |
| Cc1ccc(-c2nnc(SCC#CCOC(=O)c3cccs3)o2)cc1 | 8.34 µM (active) | 37.3 µM (active) | 13.8 µM (active) | – | – |
| Cc1ccccc1C1=Nc2c(c(=O)n(C)c(=O)n2C)C(C(F)(F)F)(C(F)(F)F)N1 | – | – | – | > 50 µM (active) | – |
| CCOC(=O)C1(CCc2ccccc2)CCN(C(=O)CCn2cncn2)CC1 | 28.8 µM (active) | 12 µM (active) | 7.67 µM (active) | – | – |
| Cc1nn(-c2ccccc2)c(C)c1C(=O)OCC(=O)N(C)C1CCS(=O)(=O)C1 (centres undefined) | 0.313 µM (active) | 12.5 µM (active) | – | – | – |
| COCC1CCN(Cc2nc(-c3ccc4c(c3)OCO4)no2)C1 (centres undefined) | 10.1 µM (active) | 13.1 µM (active) | 45 µM (active) | – | EC50 [4]: > 53 µM (inactive) |
| CC(=O)O[C@H]1CC[C@@]2(C)[C@@H](CC[C@@H]3[C@@H]2CC[C@]2(C)[C@@H](C(C)(C)O)C[C@@H]32)C1 | – | – | – | 36.9 µM (active) | – |
| CN(Cc1ccsc1)C(=O)Cn1cc(Br)ccc1=O | > 120 µM (not active) | 8.64 µM (active) | 31.7 µM (active) | – | – |
| Cc1ccc(/C=C2\SC(N3CCCCC3)=NC2=O)cc1 | 53.1 µM (active) | 10.1 µM (active) | 45.1 µM (active) | – | – |
| COc1ccc2nc(-n3c(C)ccc3C)sc2c1 | 38 µM (active) | 8.93 µM (active) | 60.8 µM (active) | – | EC50 [5]: > 150 µM (not active); EC50 (Streptokinase A): > 150 µM (not active); EC50 (Streptococcus): > 150 µM (not active) |
| CC(=O)COc1ccc2c3c(c(=O)oc2c1C)CCCCC3 | 28.8 µM (active) | 38.4 µM (active) | > 120 µM (not active) | – | – |
| Cc1[nH]c2ccccc2c1C(=O)CN1CCCCC1C (centres undefined) | – | – | – | – | EC50 [4]: 9.87 µM (active) |
| Cc1[nH]c2ccc(C(=O)OC(C)C(=O)NC3CCCCC3C)cc2c1C (centres undefined) | – | – | – | 12.1 µM (active) | – |
| C#CCN1C(C)=C(C(=O)OC)C(c2cccc([N+](=O)[O-])c2)C(C(=O)OCC)=C1C (centres undefined) | – | – | – | 24.8 µM (active) | – |
| Cc1c(Cl)ccc2c(C(=O)NC(C)c3ccncc3)cc(-c3ccncc3)nc12 (centres undefined) | – | – | – | 25.1 µM (active) | – |
| Fc1cccc(/C=N/NC(=S)Nc2ccccc2Cl)c1 | 19.6 µM (active) | 4.14 µM (active) | > 120 µM (not active) | – | – |
| COc1cc(C(C)=O)ccc1OCc1cc(C(=O)N(C)CCC2CCCCO2)no1 (centres undefined) | 0.831 µM (active) | 80.8 µM (active) | 7.86 µM (active) | – | – |
| Cn1c(SCC(=O)N/N=C/c2cc([N+](=O)[O-])ccc2O)nnc1-c1ccccc1 | – | – | – | – | EC50 [4]: > 53 µM (inactive) |
| COc1ccc(C(=O)NCc2cc3ccccc3n2C)cc1 | 7.51 µM (active) | 12 µM (active) | 9.84 µM (active) | – | – |
| COc1ccc(/C=C2\SC(=O)N(CCNC(=O)Cc3coc4cc(OC)ccc34)C2=O)cc1 | 23.4 µM (active) | 11.5 µM (active) | 10.4 µM (active) | – | – |
| O=C1NC(=O)C2(N1)C(=O)c1cccc3cccc2c13 (centres undefined) | – | – | – | – | EC50 [4]: 8.84 µM (active) |
| O=S(=O)(c1cccc(-c2nnc(SCc3nc4ccccc4s3)o2)c1)N1CCOCC1 | 5.25 µM (active) | 21.4 µM (active) | > 120 µM (not active) | – | – |
| CCOC(=O)Cc1csc(NC(=O)c2ccc(S(=O)(=O)N3CCCCC3)cc2)n1 | – | – | – | 11.5 µM (active) | – |
| COc1cccc(N2CCN(CC(=O)c3c[nH]c4ccc(OC)cc34)CC2C)c1 (centres undefined) | – | – | – | 38.1 µM (active) | – |
| Cn1c(-c2ccsc2)c(-c2cccs2)c2cc(-c3cccc4[nH]ccc34)ccc21 | – | – | – | 32.1 µM (active) | – |
| Cc1c(C(=O)Nc2nnc(C(F)(F)F)s2)oc2ccccc12 | 3.22 µM (active) | 6.63 µM (active) | 72.7 µM (active) | – | – |
| CCN(CC)CCSc1nnc2c3ccccc3n(CCc3ccccc3)c2n1 | > 120 µM (not active) | 16.1 µM (active) | > 120 µM (not active) | – | – |
